# Results from patent US20120094964A1, “SULFAMOYL BENZOIC ACID DERIVATIVES AS TRPM8 ANTAGONISTS” (priority 2009, published 2012).
# Biological target: T1, human TRPM8 (Homo sapiens, UniProt Q7Z2W7)
# T1 construct: expressed in transfected cells
# Assay: In Vitro human TRPM8 Functional Assay (intracellular Ca2+, Fluo4, FDSS, menthol activation)
# Type: cell-based
# Details: HEK293 cells stably expressing human TRPM8; activation with L-(-)-Menthol; 11-point dose-response
# Description: In Vitro human TRPM8 Functional Assay
# The functional activity of compounds was determined by measuring changes in intracellular calcium concentration using a Ca^2+-sensitive fluorescent dye, Fluo4 (Molecular Probes). The changes in fluorescent signal were monitored by the cell imaging technology by Hamamatsu Photonics's Functional Drug Screening System (FDSS).
# HEK293 cells stably expressing human TRPM8 were grown in T175 flasks, in a 5% CO2 humidified incubator to about 80% confluence. Media composition consisted of Dulbecco's Modified Eagle Medium (high glucose), 10% fetal calf serum (FCS), 100 units/ml Penicillin, 100 microg/ml Streptomycin and 600 microg/ml Geneticine.
# 1. Plate-out HEK293-TRPM8 cells (40 microL medium containing 30,000 cells per well) into poly-D-lysine coated 384-well plates (BD FALCON) at 24 hours prior to assay.
# 1. […] 2. […] 3. Place the plate at room temperature in dark for 1 hour. 4. […] 5. Add 20 microL of compound solutions into each well and leave the plate for 5 minutes under the dark at room temperature. 6. Measure activity by FDSS as follows: • Set the assay plate on the stacker of FDSS • Start the detection of fluorescence intensity • After 30 sec, add 20 microL of 90 microM L-(−)-Menthol
# IC50 values for compounds of the present invention were determined from 11-point dose-response studies. Curves were generated using the average of duplicate wells for each data point. Finally, the IC50 values are calculated with the best-fit dose curve determined by XLfit (ID Business Solutions Ltd.).
# T1 sequence (Q7Z2W7 whole entry): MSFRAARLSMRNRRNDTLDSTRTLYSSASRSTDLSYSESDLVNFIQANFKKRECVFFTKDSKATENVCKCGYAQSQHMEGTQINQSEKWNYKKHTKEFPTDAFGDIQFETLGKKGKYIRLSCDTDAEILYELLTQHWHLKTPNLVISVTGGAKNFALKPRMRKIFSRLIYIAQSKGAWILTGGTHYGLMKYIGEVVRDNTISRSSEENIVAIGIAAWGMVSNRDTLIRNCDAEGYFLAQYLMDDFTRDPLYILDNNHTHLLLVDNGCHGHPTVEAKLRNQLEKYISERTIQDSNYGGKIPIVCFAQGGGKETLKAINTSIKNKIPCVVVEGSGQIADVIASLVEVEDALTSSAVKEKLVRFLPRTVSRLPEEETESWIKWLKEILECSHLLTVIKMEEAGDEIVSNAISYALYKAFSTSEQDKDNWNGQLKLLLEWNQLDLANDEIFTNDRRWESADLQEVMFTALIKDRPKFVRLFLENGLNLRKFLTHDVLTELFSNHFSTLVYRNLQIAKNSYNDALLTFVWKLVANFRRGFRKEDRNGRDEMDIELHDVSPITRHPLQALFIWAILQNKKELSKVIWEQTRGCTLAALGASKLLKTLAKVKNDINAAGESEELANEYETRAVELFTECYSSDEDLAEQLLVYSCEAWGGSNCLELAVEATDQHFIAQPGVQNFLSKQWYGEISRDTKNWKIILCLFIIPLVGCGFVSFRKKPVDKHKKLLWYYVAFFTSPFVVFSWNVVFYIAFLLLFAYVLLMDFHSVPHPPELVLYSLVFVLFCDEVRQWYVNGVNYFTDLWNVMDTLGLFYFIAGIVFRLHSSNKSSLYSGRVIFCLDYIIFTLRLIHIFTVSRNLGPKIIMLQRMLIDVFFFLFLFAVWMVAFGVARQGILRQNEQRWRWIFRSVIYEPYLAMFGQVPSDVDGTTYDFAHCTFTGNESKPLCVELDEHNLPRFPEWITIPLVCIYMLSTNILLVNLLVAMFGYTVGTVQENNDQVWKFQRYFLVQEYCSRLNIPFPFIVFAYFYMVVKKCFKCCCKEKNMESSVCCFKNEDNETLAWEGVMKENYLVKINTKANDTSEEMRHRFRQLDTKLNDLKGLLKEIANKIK
row,SMILES,IC50 [µM]
1,"Cc1cccc(N(C(C)c2ccccc2F)S(=O)(=O)c2ccc(F)cc2C)c1 (stereo not drawn) [Example 98, 4-Fluoro-N-(1-(2-fluorophenyl)ethyl)-2-methyl-N-m-tolylbenzenesulfonamide]",1 to 10
2,"O=S(=O)(c1ccc(-c2nn[nH]n2)cc1)N(Cc1ccccc1)c1ncc(C(F)(F)F)cc1Cl [Example 174, N-Benzyl-N-(3-chloro-5-(trifluoromethyl)pyridin-2-yl)-4-(2H-tetrazol-5-yl)benzenesulfonamide]",< 1
3,"O=[N+]([O-])c1ccc(S(=O)(=O)N(Cc2ccccc2)c2ccccn2)cc1 [Example 130, N-Benzyl-4-nitro-N-(pyridin-2-yl)benzene-sulfonamide]",1 to 10
4,"COc1ccc(S(=O)(=O)N(Cc2ccccc2)c2ncc(C(F)(F)F)cc2Cl)cc1 [Example 175, N-Benzyl-N-(3-chloro-5-(trifluoromethyl)pyridin-2-yl)-4-methoxybenzenesulfonamide]",< 1
5,"Cc1cc(Cl)cnc1N(Cc1ccc(F)c(C(F)(F)F)c1)S(=O)(=O)c1ccc(C(=O)O)cc1 [Example 76, 4-(N-(5-Chloro-3-methylpyridin-2-yl)-N-(4-fluoro-3-(trifluoromethyl)benzyl)sulfamoyl)benzoic acid]",< 1
6,"O=C(O)c1ccc(S(=O)(=O)N(CC2CC2)c2ncc(C(F)(F)F)cc2Cl)cc1 [Example 29, 4-(N-(3-Chloro-5-(trifluoromethyl)pyridin-2-yl)-N-(cyclopropylmethyl)sulfamoyl)benzoic acid]",1 to 10
7,"COc1ccc(N(C(C)c2ccccc2F)S(=O)(=O)c2ccc(F)c(Cl)c2)cc1 (stereo not drawn) [Example 97, 3-Chloro-4-fluoro-N-(1-(2-fluorophenyl)ethyl)-N-(4-methoxyphenyl) benzenesulfonamide]",1 to 10
8,"O=C(O)c1ccc(S(=O)(=O)N(Cc2ccccc2)c2ncc(Br)cc2Cl)cc1 [Example 180, 4-(N-Benzyl-N-(5-bromo-3-chloropyridin-2-yl)sulfamoyl)benzoic acid]",< 1
9,"COc1cccc(N(C(C)c2ccccc2F)S(=O)(=O)c2ccccc2F)c1 (stereo not drawn) [Example 92, 2-Fluoro-N-(1-(2-fluorophenyl)ethyl)-N-(3-methoxyphenyl)benzene-sulfonamide]",1 to 10
10,"COc1cccc(C(C)N(c2ccccc2)S(=O)(=O)c2cccc(F)c2)c1 (stereo not drawn) [Example 138, 3-Fluoro-N-(1-(3-methoxy-phenyl)ethyl)-N-phenyl-benzenesulfonamide]",1 to 10
11,"COc1cccc(-c2cnc(N(Cc3ccccc3)S(=O)(=O)c3ccc(C(=O)O)cc3)c(Cl)c2)c1 [Example 187, 4-(N-Benzyl-N-(3-chloro-5-(3-methoxyphenyl)pyridin-2-yl)sulfamoyl)benzoic acid]",< 1
12,"CN1CCN(C(=O)CN(c2cccc(C(F)(F)F)c2)S(=O)(=O)c2ccccc2)CC1 [Example 5, N-(2-(4-Methylpiperazin-1-yl)-2-oxoethyl)-N-(3-(trifluoromethyl)phenyl)benzenesulfonamide]",< 1
13,"O=C(O)c1ccc(S(=O)(=O)N(Cc2ccc(OC(F)(F)F)cc2)c2ncc(C(F)(F)F)cc2Cl)cc1 [Example 15, 4-(N-(3-Chloro-5-(trifluoromethyl)pyridin-2-yl)-N-(4-(trifluoromethoxy)benzyl)sulfamoyl)benzoic acid]",< 1
14,"O=C(O)c1ccc(S(=O)(=O)N(Cc2cc(F)cc(F)c2)c2ncc(C(F)(F)F)cc2Cl)cc1 [Example 42, 4-(N-(3-Chloro-5-(trifluoromethyl)pyridin-2-yl)-N-(3,5-difluorobenzyl)sulfamoyl)benzoic acid]",< 1
15,"COc1cccc(N(CC(=O)N2CCN(Cc3ccccc3)CC2)S(=O)(=O)c2ccccc2)c1 [Example 84, N-(2-(4-Benzylpiperazin-1-yl)-2-oxoethyl)-N-(3-methoxyphenyl)benzene-sulfonamide]",1 to 10
16,"O=C(O)c1ccc(S(=O)(=O)N(Cc2ccccn2)c2ccc(C(F)(F)F)cc2Cl)cc1 [Example 82, 4-(N-(2-Chloro-4-(trifluoromethyl)phenyl)-N-(pyridin-2-ylmethyl)sulfamoyl)benzoic acid]",1 to 10
17,"CS(=O)(=O)NCc1ccc(S(=O)(=O)N(Cc2ccccc2)c2ncc(C(F)(F)F)cc2Cl)cc1 [Example 176, N-Benzyl-N-(3-chloro-5-(trifluoromethyl)pyridin-2-yl)-4-(methylsulfonamidomethyl)benzenesulfonamide]",< 1
18,"O=C(O)c1ccc(S(=O)(=O)N(Cc2ccc(-c3cnco3)cc2)c2ncc(C(F)(F)F)cc2Cl)cc1 [Example 159, 4-(N-(3-Chloro-5-(trifluoromethyl)pyridin-2-yl)-N-(4-(oxazol-5-yl)benzyl)sulfamoyl)benzoic acid]",< 1
19,"Cc1ccc(-c2ccc(CN(c3ncc(C(F)(F)F)cc3Cl)S(=O)(=O)c3ccc(C(=O)O)cc3)cc2)cn1 [Example 163, 4-(N-(3-chloro-5-(trifluoromethyl)pyridin-2-yl)-N-(4-(6-methylpyridin-3-yl)benzyl)sulfamoyl)benzoic acid]",< 1
20,"Cc1cc(Cl)cnc1N(Cc1ccc(C(F)(F)F)cc1)S(=O)(=O)c1ccc(C(=O)O)cc1 [Example 55, 4-(N-(5-Chloro-3-methylpyridin-2-yl)-N-(4-(trifluoromethyl)benzyl)sulfamoyl)benzoic acid]",< 1
21,"O=C(O)c1ccc(S(=O)(=O)N(CCC2CCCCC2)c2ncc(C(F)(F)F)cc2Cl)cc1 [Example 19, 4-(N-(3-Chloro-5-(trifluoromethyl)pyridin-2-yl)-N-(2-cyclohexylethyl)sulfamoyl)benzoic acid]",< 1
22,O=C(O)c1ccc(S(=O)(=O)N(Cc2ccc(OCC(F)(F)F)cc2)c2ncc(C(F)(F)F)cc2Cl)cc1 [Example 41],< 1
23,"COc1ccc(CN(c2ncc(C(F)(F)F)cc2Cl)S(=O)(=O)c2ccc(C(=O)O)cc2)cc1 [Example 16, 4-(N-(3-Chloro-5-(trifluoromethyl)pyridin-2-yl)-N-(4-methoxybenzyl)sulfamoyl)benzoic acid]",< 1
24,"O=C(O)c1ccc(Cl)c(S(=O)(=O)N(Cc2ccccc2)c2ccccc2)c1 [Example 126, 3-(N-Benzyl-N-phenylsulfamoyl)-4-chlorobenzoic acid]",10 to 30

# The next lines start with the values.
row,IC50 [µM],SMILES
1,1 to 10,"COc1cccc(C(C)N(c2cccc(OC)c2)S(=O)(=O)c2ccc(C)c(F)c2)c1 (stereo not drawn) [Example 103, 3-Fluoro-N-(3-methoxyphenyl)-N-(1-(3-methoxy-phenyl)ethyl)-4-methyl benzenesulfonamide]"
2,< 1,"O=C(O)c1ccc(S(=O)(=O)N(Cc2ccc(Cl)c(Cl)c2)c2ncc(C(F)(F)F)cc2Cl)cc1 [Example 47, 4-(N-(3-Chloro-5-(trifluoromethyl)pyridin-2-yl)-N-(3,4-dichlorobenzyl)sulfamoyl)benzoic acid]"
3,1 to 10,"O=C(O)c1ccc(S(=O)(=O)N(Cc2ccccc2)c2ncccc2Cl)cc1 [Example 37, 4-(N-Benzyl-N-(3-chloropyridin-2-yl)sulfamoyl)benzoic acid]"
4,1 to 10,"COc1ccc(OC)c(C(C)N(c2ccc(C)cc2)S(=O)(=O)c2ccc(C)cc2)c1 (stereo not drawn) [Example 85, N-(1-(2,5-Dimethoxyphenyl)ethyl)-4-methyl-N-p-tolylbenzenesulfonamide]"
5,< 1,"O=C(O)c1ccc(S(=O)(=O)N(Cc2ccc(OC(F)(F)F)cc2)c2ncc(Cl)cc2Cl)cc1 [Example 63, 4-(N-(3,5-Dichloropyridin-2-yl)-N-(4-(trifluoromethoxy)benzyl)sulfamoyl)benzoic acid]"
6,< 1,"Cc1ccc(CN(c2ncc(C(F)(F)F)cc2Cl)S(=O)(=O)c2ccc(C(=O)O)cc2)cc1 [Example 27, 4-(N-(3-Chloro-5-(trifluoromethyl)pyridin-2-yl)-N-(4-methylbenzyl)sulfamoyl)benzoic acid]"
7,< 1,"O=C(O)c1ccc(S(=O)(=O)N(Cc2ccc(F)cc2)c2ncc(Cl)cc2Cl)cc1 [Example 61, 4-(N-(3,5-Dichloropyridin-2-yl)-N-(4-fluorobenzyl)sulfamoyl)benzoic acid]"
8,10 to 30,"O=C(CN(c1cccc(C(F)(F)F)c1)S(=O)(=O)c1ccccc1)NCc1ccccc1 [Example 7, N-Benzyl-2-(N-(3-(trifluoromethyl)phenyl)benzenesulfonamido)acetamide]"
9,10 to 30,"COc1ccc(N(Cc2ccccc2)S(=O)(=O)c2ccc(Cl)c(C(=O)O)c2)cc1 [Example 119, 5-(N-Benzyl-N-(4-methoxyphenyl)sulfamoyl)-2-chlorobenzoic acid]"
10,1 to 10,"COc1ccc(N(Cc2ccccc2)S(=O)(=O)c2cccc(C(=O)O)c2)cc1 [Example 113, 3-(N-Benzyl-N-(4-methoxyphenyl)sulfamoyl) benzoic acid]"
11,< 1,"C[Si](C)(C)c1ccc(CN(c2ncc(C(F)(F)F)cc2Cl)S(=O)(=O)c2ccc(C(=O)O)cc2)cc1 [Example 140, 4-(N-(3-Chloro-5-(trifluoromethyl)pyridin-2-yl)-N-(4-(trimethylsilyl)benzyl)sulfamoyl)benzoic acid]"
12,< 1,"COc1ccc(S(=O)(=O)N(Cc2ccccc2)c2ncc(C(F)(F)F)cc2Cl)cn1 [Example 189, N-Benzyl-N-(3-chloro-5-(trifluoromethyl)pyridin-2-yl)-6-methoxypyridine-3-sulfonamide]"
